Several values for one entry are separate records, joined by “and”; a condition that tells them apart may be missing. Identical values can stand only once. Toxic doses and inconclusive results are not listed. Cut-off read from the data, not from the text of the source: active = T/C of 150% or more; inactive = T/C below 125%.
System: L1210 leukemia ip in BDF1 mice, survival T/C
Test: NCI In Vivo Anticancer Drug Screen. Data for tumor model L1210 Leukemia (intraperitoneal) in B6D2F1 (BDF1) mice
Details: endpoint: mean survival time, higher = longer survival
Procedure, shortened: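 Tumor was transplanted into mice, which were then dosed with test compound or vehicle alone. Survival was recorded for each group, and the treated figure was expressed relative to the control figure.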

[1] = dose: 100.0 mg/kg/injection, schedule: Q01DX009 (ip), vehicle: saline with Tween-80
[2] = dose: 100.0 mg/kg/injection, schedule: Q04DX003 (ip), vehicle: Klucel (hydroxypropylcellulose) (HPC)
[3] = dose: 200.0 mg/kg/injection, schedule: Q01DX009 (ip), vehicle: saline with Tween-80
[4] = dose: 200.0 mg/kg/injection, schedule: Q04DX003 (ip), vehicle: Klucel (hydroxypropylcellulose) (HPC)
[5] = dose: 400.0 mg/kg/injection, schedule: Q01DX009 (ip), vehicle: saline with Tween-80
[6] = dose: 400.0 mg/kg/injection, schedule: Q04DX003 (ip), vehicle: Klucel (hydroxypropylcellulose) (HPC)
[7] = dose: 100.0 mg/kg/injection, schedule: Q01DX009 (ip), vehicle: Klucel (hydroxypropylcellulose) (HPC)
[8] = dose: 200.0 mg/kg/injection, schedule: Q01DX009 (ip), vehicle: Klucel (hydroxypropylcellulose) (HPC)
[9] = dose: 400.0 mg/kg/injection, schedule: Q01DX009 (ip), vehicle: Klucel (hydroxypropylcellulose) (HPC)
[10] = dose: 50.0 mg/kg/injection, schedule: Q01DX009 (ip), vehicle: Klucel (hydroxypropylcellulose) (HPC)
[11] = dose: 100.0 mg/kg/injection, schedule: Q01DX001 (ip), vehicle: saline with Tween-80
[12] = dose: 200.0 mg/kg/injection, schedule: Q01DX001 (ip), vehicle: saline with Tween-80
[13] = dose: 400.0 mg/kg/injection, schedule: Q01DX001 (ip), vehicle: saline with Tween-80
[14] = dose: 100.0 mg/kg/injection, schedule: Q01DX001 (ip), vehicle: Klucel (hydroxypropylcellulose) (HPC)
[15] = dose: 100.0 mg/kg/injection, schedule: Q01DX001 (ip), vehicle: other
[16] = dose: 200.0 mg/kg/injection, schedule: Q01DX001 (ip), vehicle: other

Measured: T/C

COC(=O)/C(C)=C\C=C(/C)C(=O)OC
inactive: dose: 100.0 mg/kg/injection, schedule: Q04DX003 (ip), vehicle: saline 100 % of control | dose: 200.0 mg/kg/injection, schedule: Q04DX003 (ip), vehicle: saline 116 % of control | dose: 400.0 mg/kg/injection, schedule: Q04DX003 (ip), vehicle: saline 97 % of control

CC(C)c1ccccc1OS(=O)(=O)c1ccc([N+](=O)[O-])cc1
inactive: [1] 103 % of control | [2] 103 % of control | [3] 92 % of control | [4] 105 % of control | [5] 90 % of control | [6] 92 % of control

CN1CCC(=C(C#N)c2ccccc2)CC1
inactive: dose: 25.0 mg/kg/injection, schedule: Q04DX003 (ip), vehicle: saline 97 % of control | dose: 50.0 mg/kg/injection, schedule: Q04DX003 (ip), vehicle: saline 97 % of control

CCN=C(c1ccc(NC(=O)c2ccc(C(=O)Nc3ccc(C(=NCC)N(CC)CC)cc3)cc2)cc1)N(CC)CC
inactive: dose: 0.94 mg/kg/injection, schedule: Q01DX Z (ip), vehicle: carboxymethylcellulose (CMC) 94 % of control | dose: 1.87 mg/kg/injection, schedule: Q01DX Z (ip), vehicle: carboxymethylcellulose (CMC) 95 % of control

CCOC(=O)/C=C\CC(O)CC (centres undefined)
inactive: [7] 105 % of control | [2] 98 % of control | [8] 105 % of control | [4] 104 % of control | [9] 118 % of control | [6] 114 % of control

O=C1NC(c2cccc3ccccc23)Nc2ccc(Cl)cc21 (centres undefined)
inactive: [10] 108 % of control and 109 % of control | dose: 150.0 mg/kg/injection, schedule: Q01DX009 (ip), vehicle: Klucel (hydroxypropylcellulose) (HPC) 116 % of control

O=C1c2ccccc2-c2cccc3ccc(C4CCCCC4)c1c23
inactive: [11] 88 % of control | [12] 88 % of control | [13] 92 % of control

CCOC(=O)c1ccc(NC(=O)Oc2ccccc2C(=O)OCc2ccccc2)cc1
inactive: [7] 98 % of control | [8] 95 % of control | [9] 96 % of control

CCCCCCCCCCCCCCCCCCCCCCCC(=O)OCC
inactive: dose: 400.0 mg/kg/injection, schedule: Q04DX003 (ip), vehicle: saline with Tween-80 92 % of control

CCOC(C)C1C2CCCCC21 (centres undefined)
inactive: [1] 101 % of control | [3] 92 % of control

C/C(Cl)=C1\CCCC\C1=N\NC(N)=O
inactive: [14] 95 % of control | dose: 200.0 mg/kg/injection, schedule: Q01DX001 (ip), vehicle: Klucel (hydroxypropylcellulose) (HPC) 98 % of control | dose: 400.0 mg/kg/injection, schedule: Q01DX001 (ip), vehicle: Klucel (hydroxypropylcellulose) (HPC) 102 % of control

Nc1c(Br)cc(Br)cc1C(=O)O
inactive: [15] 97 % of control | [16] 97 % of control

COc1ccc2c(c1)CCC1(C)CC(C)C(=O)C=C21 (centres undefined)
inactive: [2] 92 % of control | [4] 91 % of control | [6] 92 % of control

c1ccc(C2c3ccccc3C(c3ccccc3)(c3ccccc3)c3ccccc32)cc1
inactive: [15] 91 % of control | [16] 91 % of control | dose: 400.0 mg/kg/injection, schedule: Q01DX001 (ip), vehicle: other 91 % of control

O=C(CC(=O)CC(O)(C(F)(F)F)C(F)(F)F)CC(O)(C(F)(F)F)C(F)(F)F
inactive: dose: 2.5 mg/kg/injection, schedule: Q01DX009 (ip), vehicle: saline 97 % of control | dose: 5.0 mg/kg/injection, schedule: Q01DX009 (ip), vehicle: saline 95 % of control

O=[N+]([O-])c1ccc(S(=O)(=O)C2CCCCC2Cl)c([N+](=O)[O-])c1 (centres undefined)
inactive: dose: 50.0 mg/kg/injection, schedule: Q01DX001 (ip), vehicle: carboxymethylcellulose (CMC) 95 % of control | dose: 100.0 mg/kg/injection, schedule: Q01DX001 (ip), vehicle: carboxymethylcellulose (CMC) 111 % of control | dose: 200.0 mg/kg/injection, schedule: Q01DX001 (ip), vehicle: carboxymethylcellulose (CMC) 106 % of control | dose: 400.0 mg/kg/injection, schedule: Q01DX001 (ip), vehicle: carboxymethylcellulose (CMC) 101 % of control

CCOC(=O)CN(C(=O)OCC)C(OCC)OCC
inactive: [1] 95 % of control | [3] 104 % of control | [5] 93 % of control

CC(C)(O)C(O)CC1=C(O)c2ccccc2C(=O)C1=O (centres undefined)
inactive: dose: 100.0 mg/kg/injection, schedule: Q01DX001 (ip), vehicle: water 106 % of control | dose: 200.0 mg/kg/injection, schedule: Q01DX001 (ip), vehicle: water 97 % of control | dose: 400.0 mg/kg/injection, schedule: Q01DX001 (ip), vehicle: water 93 % of control

Cn1c(CC(O)(C(F)(F)F)C(F)(F)F)ccc1CC(O)(C(F)(F)F)C(F)(F)F
inactive: dose: 100.0 mg/kg/injection, schedule: Q01DX001 (ip), vehicle: gum acacia 107 % of control | dose: 200.0 mg/kg/injection, schedule: Q01DX001 (ip), vehicle: gum acacia 103 % of control | dose: 400.0 mg/kg/injection, schedule: Q01DX001 (ip), vehicle: gum acacia 98 % of control

Cn1c(CCl)nc2c1c(=O)[nH]c(=O)n2C
inactive: [15] 95 % of control

Cc1cc2c(C)nc3ccccc3n2c1O
inactive: [10] 103 % of control | [7] 103 % of control | [8] 98 % of control

Nc1cnnc(N)c1Cl
inactive: dose: 5.0 mg/kg/injection, schedule: Q01DX001 (ip), vehicle: saline 102 % of control | dose: 10.0 mg/kg/injection, schedule: Q01DX001 (ip), vehicle: saline 113 % of control | dose: 20.0 mg/kg/injection, schedule: Q01DX001 (ip), vehicle: saline 104 % of control | dose: 40.0 mg/kg/injection, schedule: Q01DX001 (ip), vehicle: saline 95 % of control

C=CC(=O)NC(=O)/C=C/c1cccnc1
inactive: dose: 100.0 mg/kg/injection, schedule: Q04DX002 (ip), vehicle: Klucel (hydroxypropylcellulose) (HPC) 117 % of control | dose: 200.0 mg/kg/injection, schedule: Q04DX002 (ip), vehicle: Klucel (hydroxypropylcellulose) (HPC) 106 % of control | dose: 400.0 mg/kg/injection, schedule: Q04DX002 (ip), vehicle: Klucel (hydroxypropylcellulose) (HPC) 120 % of control

C=CCOCC(O)CNCC(O)COCC=C (centres undefined)
inactive: dose: 25.0 mg/kg/injection, schedule: Q01DX009 (ip), vehicle: saline with Tween-80 98 % of control | dose: 25.0 mg/kg/injection, schedule: Q04DX003 (ip), vehicle: saline with Tween-80 100 % of control | dose: 50.0 mg/kg/injection, schedule: Q01DX009 (ip), vehicle: saline with Tween-80 101 % of control | dose: 50.0 mg/kg/injection, schedule: Q04DX003 (ip), vehicle: saline with Tween-80 92 % of control | [1] 101 % of control | dose: 100.0 mg/kg/injection, schedule: Q04DX003 (ip), vehicle: saline with Tween-80 102 % of control

CCCCCCCCCCCCC1C2CCCCC2CC2CCCCC21 (centres undefined)
inactive: [11] 94 % of control | [12] 94 % of control | [13] 96 % of control

Cc1ccc(S(=O)(=O)N2CCC(C(=O)O)(c3ccccc3)CC2)cc1
inactive: [1] 117 % of control | [3] 101 % of control | [5] 95 % of control

ONC12CC3CC(CC(C3)C1)C2
inactive: dose: 12.5 mg/kg/injection, schedule: Q01DX009 (ip), vehicle: Klucel (hydroxypropylcellulose) (HPC) 98 % of control | dose: 25.0 mg/kg/injection, schedule: Q01DX009 (ip), vehicle: Klucel (hydroxypropylcellulose) (HPC) 95 % of control | [10] 95 % of control | [14] 97 % of control

O=c1cc[nH]c2cc(Cl)ccc12
inactive: dose: 50.0 mg/kg/injection, schedule: Q01DX009 (ip), vehicle: saline 102 % of control | dose: 100.0 mg/kg/injection, schedule: Q01DX009 (ip), vehicle: saline 97 % of control

Nc1c(Cl)ncnc1Nc1ccc(C(=O)O)cc1
inactive: dose: 50.0 mg/kg/injection, schedule: Q01DX001 (ip), vehicle: saline 96 % of control | dose: 100.0 mg/kg/injection, schedule: Q01DX001 (ip), vehicle: saline 98 % of control | dose: 200.0 mg/kg/injection, schedule: Q01DX001 (ip), vehicle: saline 96 % of control | dose: 400.0 mg/kg/injection, schedule: Q01DX001 (ip), vehicle: saline 96 % of control

Reference: PubChem BioAssay AID248 (DTP/NCI, 2004)
